Values of other authors, collected in patent US9925200B2, “Stable formulations of testosterone undecanoate” (Merck Sharp & Dohme B.V., priority 2014, dated 2018).

How the values were obtained:
[1] = not given; remark: listed apart in the source

CCCCCCCCCCC(=O)O[C@H]1CC[C@H]2[C@@H]3CCC4=CC(=O)CC[C@]4(C)[C@H]3CC[C@]12C [Testosterone undecanoate]
Log P: 9.1
water solubility [1]: very low
